Literature values in article PMC10783014, “Structure-based virtual screening and in vitro validation of inhibitors of cyclic dinucleotide phosphodiesterases ENPP1 and CdnP” (Microbiology Spectrum, 2023).

Tested on: CdnP
Conditions: cited from earlier work

SMILES | CdnP inhibition
CCCc1nn(C)c2c(=O)[nH]c(-c3cc(S(=O)(=O)N4CCN(C)CC4)ccc3OCC)nc12 [sildenafil] | demonstrated CdnP inhibition
CN1CC(=O)N2[C@H](c3ccc4c(c3)OCO4)c3[nH]c4ccccc4c3C[C@@H]2C1=O [tadalafil] | demonstrated CdnP inhibition
O=C1CCc2cc(OCCCCc3nnnn3C3CCCCC3)ccc2N1 [cilostazol] | demonstrated CdnP inhibition
COc1ccc([C@]2(C#N)CC[C@@H](C(=O)O)CC2)cc1OC1CCCC1 [cilomilast] | demonstrated CdnP inhibition
